Data on 25 compounds can be found in patent US20130344026A1, “Dimeric Smac Mimetics” (priority 2009, published 2013).

For assay [1], the system named is HCC461. Description: cell viability assay in HCC461, compound alone. In kind it is cell-based.
Assay [2] has as its system PANC-1 cells. Description: cell viability assay in PANC-1 cells (compound alone, + 100 ng/ml TNFa, + 300 ng/ml TRAIL). It is filed as cell-based.
[3] abbreviates: HCC461, Tables 15-18, read-out: IC50 (uM) in cell viability assay in HCC461.
[4] abbreviates: HCC461, HCC461, Tables 6-9, read-out: IC50 (μM) in cell viability assay in HCC461.
Setting [5] is: Homo sapiens, PANC-1 cells, compound alone, read-out: IC50 (uM) in cell viability assay in PANC-1 cells, Cmpnd alone.
Where [6] appears, read: PANC-1 cells, + 100 ng/ml TNFa, read-out: IC50 (uM) in cell viability assay in PANC-1 cells, Cmpnd + 100 ng/ml TNFa.
Where [7] appears, read: PANC-1 cells, + 300 ng/ml TRAIL, read-out: IC50 (uM) in cell viability assay in PANC-1 cells, Cmpnd + 300 ng/ml TRAIL.
Where [8] appears, read: Homo sapiens, PANC-1, compound alone, Tables 15-18, read-out: IC50 (uM) in cell viability assay in PANC-1 cells: Cmpnd alone.
The mark [9] stands for this setting: with 100 ng/ml TNFa, Tables 15-18, read-out: IC50 (uM) in cell viability assay in PANC-1 cells: Cmpnd + 100 ng/ml TNFa.
The mark [10] stands for this setting: with 300 ng/ml TRAIL, Tables 15-18, read-out: IC50 (uM) in cell viability assay in PANC-1 cells: Cmpnd + 300 ng/ml TRAIL.

Where two headings read alike, the source gives them in different places. A value given as a limit tells only on which side of the number the result lay.

In the case of `CN[C@@H](C)C(=O)N[C@H](C(=O)N1C[C@@H](NC(=O)c2ccc(CNC(=O)CCC(=O)NCc3ccc(C(=O)N[C@H]4C[C@@H](C(=O)NC5CCCc6ccccc65)N(C(=O)[C@@H](NC(=O)[C@H](C)NC)C(C)(C)C)C4)cc3)cc2)C[C@H]1C(=O)NC1CCCc2ccccc21)C(C)(C)C` (single isomer, unassigned) [Compound P3-70], the IC50 in assay [1] (HCC461, HCC461 cells, compound alone, read-out: IC50 (uM) in cell viability assay in HCC461) came out at 0.06 µM.
`CN[C@@H](C)C(=O)N[C@H](C(=O)N1CCC[C@H]1C(=O)N[C@H](CNC(=O)C1CCCCC1C(=O)NC[C@@H](NC(=O)[C@@H]1CCCN1C(=O)[C@@H](NC(=O)[C@H](C)NC)C(C)(C)C)C1CCCCC1)C1CCCCC1)C(C)(C)C` (single isomer, unassigned) [Compound P4-2]: in assay [1] (setting [3]), the IC50 stood at 0.12 µM.
Regarding `CN[C@@H](C)C(=O)N[C@H](C(=O)N1CCC[C@H]1C(=O)N[C@H](CNC(=O)C1CCCCC1C(=O)NC[C@@H](NC(=O)[C@@H]1CCCN1C(=O)[C@@H](NC(=O)[C@H](C)NC)C(C)(C)C)C1CCCCC1)C1CCCCC1)C(C)(C)C` (single isomer, unassigned) [Compound P4-3], the IC50 in assay [1] (setting [3]) was 0.03 µM.
As to `CN[C@@H](C)C(=O)N[C@H](C(=O)N1CCC[C@H]1C(=O)N[C@H](CNC(=O)C1CCCC(C(=O)NC[C@@H](NC(=O)[C@@H]2CCCN2C(=O)[C@@H](NC(=O)[C@H](C)NC)C(C)(C)C)C2CCCCC2)C1)C1CCCCC1)C(C)(C)C` (single isomer, unassigned) [Compound P4-4], in assay [1] (setting [3]), the IC50 worked out at 0.004 µM.
For the compound `CN[C@@H](C)C(=O)N[C@H](C(=O)N1CCC[C@H]1C(=O)N[C@H](CNC(=O)C1CCCC(C(=O)NC[C@@H](NC(=O)[C@@H]2CCCN2C(=O)[C@@H](NC(=O)[C@H](C)NC)C(C)(C)C)C2CCCCC2)C1)C1CCCCC1)C(C)(C)C` (single isomer, unassigned) [Compound P4-5], the IC50 in assay [1] (setting [3]) was 0.011 µM.
With `CN[C@@H](C)C(=O)N[C@@H](CC#CC#CC[C@H](NC(=O)[C@H](C)NC)C(=O)N1CCCC[C@H]1C(=O)N[C@@H]1CCCc2ccccc21)C(=O)N1CCCC[C@H]1C(=O)N[C@@H]1CCCc2ccccc21` [Compound 87], in assay [1] (setting [4]), the IC50 was 0.404 µM.
In the case of `CN[C@@H](C)C(=O)N[C@@H](CC#CC#CC[C@H](NC(=O)[C@H](C)NC)C(=O)N1CSC[C@H]1C(=O)N[C@@H]1CCCc2ccccc21)C(=O)N1CSC[C@H]1C(=O)N[C@@H]1CCCc2ccccc21` [Compound 88], in assay [1] (setting [4]), the IC50 came out at 0.188 µM.
On to `CN[C@@H](C)C(=O)N[C@@H](CC#CC#CC[C@H](NC(=O)[C@H](C)NC)C(=O)N1CC=C[C@H]1C(=O)N[C@@H]1CCCc2ccccc21)C(=O)N1CC=C[C@H]1C(=O)N[C@@H]1CCCc2ccccc21` [Compound 89], for which the IC50 in assay [1] (setting [4]) stood at 0.414 µM.
Still for that read-out and setting: the value for `CN[C@@H](C)C(=O)NC(C(=O)N1C[C@@H](NC(=O)c2cc(NC(=O)OCc3ccc([N+](=O)[O-])cc3)cc(C(=O)N[C@H]3C[C@@H](C(=O)N[C@@H]4CCCc5ccccc54)N(C(=O)[C@@H](NC(=O)[C@H](C)NC)C(C)(C)C)C3)c2)CC1C(=O)N[C@@H]1CCCc2ccccc21)C(C)(C)C` (some centres unmarked) [Compound 110] was 0.059 µM.
Consider `CN[C@@H](C)C(=O)N[C@H](C(=O)N1C[C@@H](Oc2cccc(CCCCc3cccc(O[C@H]4C[C@@H](C(=O)N[C@@H]5CCCc6ccccc65)N(C(=O)[C@@H](NC(=O)[C@H](C)NC)C(C)(C)C)C4)c3)c2)C[C@H]1C(=O)N[C@@H]1CCCc2ccccc21)C(C)(C)C` [Compound P3-104], for which the figures for the IC50 in assay [2] (setting [5]), in assay [2] (setting [6]) and in assay [2] (setting [7]) were over 1 µM, 0.042 µM and 0.042 µM, respectively.
`CN[C@@H](C)C(=O)N[C@H](C(=O)N1C[C@@H](OC(=O)c2cccc(C(=O)O[C@H]3C[C@@H](C(=O)N[C@H]4CCCc5ccccc54)N(C(=O)[C@@H](NC(=O)[C@H](C)NC)C(C)(C)C)C3)c2)C[C@H]1C(=O)N[C@H]1CCCc2ccccc21)C(C)(C)C` [Compound P3-105]: the IC50 in assay [2] (setting [5]) is over 1 µM.
Take `C[C@H](N)C(=O)N[C@H](C(=O)N1C[C@@H](NC(=O)c2cccc(C(=O)N[C@H]3C[C@@H](C(=O)N[C@H]4CCCc5ccccc54)N(C(=O)[C@@H](NC(=O)[C@H](C)N)C(C)(C)C)C3)c2)C[C@H]1C(=O)N[C@H]1CCCc2ccccc21)C(C)(C)C` [Compound P3-106]: the IC50 in assay [2] (setting [5]) was over 1 µM; in assay [2] (setting [6]) it was 0.193 µM; in assay [2] (setting [7]), 0.115 µM.
As for `CN[C@@H](C)C(=O)N[C@H](C(=O)N1C[C@@H](NC(=O)c2cc(C(=O)N[C@H]3C[C@@H](C(=O)N[C@H](C)c4ccccc4)N(C(=O)[C@@H](NC(=O)[C@H](C)NC)C(C)(C)C)C3)n(C)n2)C[C@H]1C(=O)N[C@H](C)c1ccccc1)C(C)(C)C` [Compound P3-107], the IC50 in assay [2] (setting [5]) is over 1 µM; in assay [2] (setting [6]) it was 0.015 µM; in assay [2] (setting [7]) it was 0.02 µM.
In the same order, the values of `CN[C@@H](C)C(=O)N[C@H](C(=O)N1C[C@@H](NC(=O)c2cc(C(=O)N[C@H]3C[C@@H](C(=O)N[C@H](C)c4ccc(Cl)cc4)N(C(=O)[C@@H](NC(=O)[C@H](C)NC)C(C)(C)C)C3)[nH]n2)C[C@H]1C(=O)N[C@H](C)c1ccc(Cl)cc1)C(C)(C)C` [Compound P3-108] are over 1 µM, 0.012 µM and 0.036 µM.
As for `CN[C@@H](C)C(=O)N[C@H](C(=O)N1C[C@@H](N(C)C(=O)c2cc(C(=O)N(C)[C@H]3C[C@@H](C(=O)N[C@H](C)c4ccccc4)N(C(=O)[C@@H](NC(=O)[C@H](C)NC)C(C)(C)C)C3)[nH]n2)C[C@H]1C(=O)N[C@H](C)c1ccccc1)C(C)(C)C` [Compound P3-109], the results for the IC50 in assay [2] (setting [5]), in assay [2] (setting [6]) and in assay [2] (setting [7]) were over 1 µM, 0.028 µM and 0.049 µM, respectively.
In the same order, the values of `CN[C@@H](C)C(=O)N[C@H](C(=O)N1C[C@@H](NC(=O)c2cc(C(=O)N[C@H]3C[C@@H](C(=O)N[C@H](C)c4ccccc4)N(C(=O)[C@@H](NC(=O)[C@H](C)NC)[C@@H](C)OC)C3)[nH]n2)C[C@H]1C(=O)N[C@H](C)c1ccccc1)[C@@H](C)OC` [Compound P3-110] are over 1 µM, 0.056 µM and 0.073 µM.
Turning to `CN[C@@H](C)C(=O)N[C@H](C(=O)N1CCC[C@H]1CN(CCc1ccccc1)C(=O)C(F)(F)F)[C@@H](C)OCC#CC#CCN(C(=O)[C@H](C)NC)[C@H](C(=O)N1CCC[C@H]1CN(CCc1ccccc1)C(=O)C(F)(F)F)[C@@H](C)O` [Compound P4-19], the IC50 in assay [2] (setting [8]) is over 1 µM; in assay [2] (setting [9]), 0.005 µM; in assay [2] (setting [10]), 0.006 µM.
In the same order, the values of `CN[C@@H](C)C(=O)N[C@H](C(=O)N1CCC[C@H]1CN(CC#CC#CCN(CCc1ccccc1)C[C@@H]1CCCN1C(=O)[C@@H](NC(=O)[C@H](C)NC)C(C)(C)C)CCc1ccccc1)C(C)(C)C` [Compound P4-20] are over 1 µM, 0.061 µM and 0.041 µM.
Regarding `CN[C@@H](C)C(=O)N[C@H](C(=O)N1CCC[C@H]1CN(CCc1ccccc1)C(=O)CCC#CC#CCCC(=O)N(CCc1ccccc1)C[C@@H]1CCCN1C(=O)[C@@H](NC(=O)[C@H](C)NC)C(C)(C)C)C(C)(C)C` [Compound P4-21], the IC50 is over 1 µM in assay [2] (setting [8]), 0.151 µM in assay [2] (setting [9]) and 0.175 µM in assay [2] (setting [10]).
As for `CN[C@@H](C)C(=O)N[C@H](C(=O)N1CCC[C@H]1CN(CCCCCCN(CCc1ccccc1)C[C@@H]1CCCN1C(=O)[C@@H](NC(=O)[C@H](C)NC)C(C)(C)C)CCc1ccccc1)C(C)(C)C` [Compound P4-22], the IC50 is over 1 µM in assay [2] (setting [8]), 0.022 µM in assay [2] (setting [9]) and 0.04 µM in assay [2] (setting [10]).
Turning to `CN[C@@H](C)C(=O)N[C@H](C(=O)N1CCC[C@H]1C(=O)N[C@H](COC(=O)c1cccc(C(=O)OC[C@@H](NC(=O)[C@@H]2CCCN2C(=O)[C@@H](NC(=O)[C@H](C)NC)C(C)(C)C)c2ccccc2)c1)c1ccccc1)C(C)(C)C` [Compound P4-23], the IC50 in assay [2] (setting [8]) was over 1 µM; in assay [2] (setting [9]), 0.014 µM; in assay [2] (setting [10]) it was 0.006 µM.
As to `CN[C@@H](C)C(=O)N[C@H](C(=O)N1CCC[C@H]1c1nc(C(=O)NCCC#CC#CCCNC(=O)c2nc([C@@H]3CCCN3C(=O)[C@@H](NC(=O)[C@H](C)NC)C(C)(C)C)oc2-c2c[nH]c3ccccc23)c(-c2c[nH]c3ccccc23)o1)C(C)(C)C` [Compound P4-24], the IC50 in assay [2] (setting [8]) is over 1 µM.
With `CN[C@@H](C)C(=O)N[C@H](C(=O)N1CCC[C@H]1c1cc(C(=O)OC)c(-c2cn(CC#CC#CCn3cc(-c4oc([C@@H]5CCCN5C(=O)[C@@H](NC(=O)[C@H](C)NC)C(C)(C)C)cc4C(=O)OC)c4ccccc43)c3ccccc23)o1)C(C)(C)C` [Compound P4-25], the values for the IC50 in assay [2] (setting [8]), in assay [2] (setting [9]) and in assay [2] (setting [10]) were over 1 µM, 0.0342 µM and 0.0408 µM, respectively.
In the case of `CN[C@@H](C)C(=O)N[C@H](C(=O)N1CCC[C@H]1c1nc(C(=O)NCCCCCCCCNC(=O)c2nc([C@@H]3CCCN3C(=O)[C@@H](NC(=O)[C@H](C)NC)C(C)(C)C)oc2-c2c[nH]c3ccccc23)c(-c2c[nH]c3ccccc23)o1)C(C)(C)C` [Compound P4-26], the results for the IC50 in assay [2] (setting [8]), in assay [2] (setting [9]) and in assay [2] (setting [10]) were over 1 µM, 0.0007 µM and 0.0007 µM, respectively.
`CN[C@@H](C)C(=O)N[C@H](C(=O)N1CCC[C@H]1c1cc(C(=O)OC)c(-c2cn(CCCCCCn3cc(-c4oc([C@@H]5CCCN5C(=O)[C@@H](NC(=O)[C@H](C)NC)C(C)(C)C)cc4C(=O)OC)c4ccccc43)c3ccccc23)o1)C(C)(C)C` [Compound P4-27]: the IC50 in assay [2] (setting [8]) was over 1 µM; in assay [2] (setting [9]) it was 0.0243 µM; in assay [2] (setting [10]) it was 0.0294 µM.
